Reference: patent publication US9029337B2, “Modulation of factor 7 expression” (Isis Pharmaceuticals, Inc., priority 2007, dated 2015)
Strand notation (5' to 3'): a small letter for the sugar, then the base; units joined by * are phosphorothioate-linked, units joined directly phosphodiester-linked; [ ] holds rarer units or linkages, { } end groups; capitals alone tell only the bases. e = 2'-O-(2-methoxyethyl) (MOE); [5mC] = 5-methylcytosine; d = 2'-deoxy (DNA)

Tested on: human Factor 7 mRNA
Assay: Antisense inhibition of human Factor 7 mRNA in HepB3 cells, 50 nM antisense oligonucleotide, lipofectin
Type: cell-based
Settings: Table 1, 50 nM, lipofectin, approximately 24 hours, relative to untreated control cells
Outline: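 HepB3 cells were transfected by lipofectin with 50 nM antisense oligonucleotide and harvested after about 24 h. Factor 7 mRNA was measured by real-time RT-PCR (primer probe set RTS 2927 in some runs), normalized to RIBOGREEN total RNA, and reported as percent inhibition versus untreated control.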

Which “% Inhibition” value does the source give for “407640 (antisense eG*e[5mC]*eA*eT*eG*dA*dG*d[5mC]*dT*dT*dT*dT*dG*d[5mC]*dA*eG*e[5mC]*e[5mC]*eA*e[5mC]) [compound 407640]” here?
Its value is 79%.

With “407616 (antisense eT*eG*e[5mC]*eA*eG*dG*dA*d[5mC]*dA*d[5mC]*d[5mC]*d[5mC]*d[5mC]*dG*dT*e[5mC]*eT*eG*e[5mC]*e[5mC]) [compound 407616]” as the substance, how does the “% Inhibition” value read?
The value was 64%.

How did the “% Inhibition” value turn out when “407912 (antisense e[5mC]*e[5mC]*e[5mC]*eG*eG*dT*dA*dG*dT*dG*dG*dG*dT*dG*dG*e[5mC]*eA*eT*eG*eT) [compound 407912]” was run?
The value was 46%.

With “407946 (antisense eT*e[5mC]*e[5mC]*eA*eA*dA*dA*dA*dT*dG*dA*dA*dT*d[5mC]*dA*eT*eG*eG*eG*e[5mC]) [compound 407946]” as the substance, how does the “% Inhibition” value read?
The value was 5%.

Which “% Inhibition” value does the source give for “407605 (antisense eT*eT*eG*eA*eG*dG*d[5mC]*dA*d[5mC]*dA*d[5mC]*dT*dG*dG*dT*e[5mC]*e[5mC]*e[5mC]*e[5mC]*eA) [compound 407605]” here?
The value was 58%.

Which “% Inhibition” value does the source give for “407621 (antisense eA*e[5mC]*eA*eA*e[5mC]*dA*dG*dG*dA*d[5mC]*d[5mC]*dT*dG*d[5mC]*d[5mC]*eA*eT*eG*eG*eA) [compound 407621]” here?
Its value is 62%.

With “407663 (antisense eT*eT*eG*e[5mC]*eA*dG*dG*d[5mC]*dA*dG*dG*dA*d[5mC]*dT*dG*eG*eT*eG*eG*eT) [compound 407663]” as the substance, how does the “% Inhibition” value read?
The value was 44%.

“407918 (antisense e[5mC]*e[5mC]*eT*eG*eG*dT*dG*dT*dA*d[5mC]*dA*d[5mC]*d[5mC]*d[5mC]*d[5mC]*eA*eA*eA*eG*eT) [compound 407918]” was tested. Which “% Inhibition” value did it give?
The value was 72%.

Same assay, conditions: Table 6, 50 nM, lipofectin, approximately 24 hours

How did the “% Inhibition” value turn out when “422264 (antisense e[5mC]*eG*dG*dA*dA*dG*dA*dA*dG*dG*dG*dA*d[5mC]*dG*dG*eA*eA*eG*eG*eT) [compound 422264]” was run?
The value was 24%.

How did the “% Inhibition” value turn out when “422122 (antisense eA*eG*e[5mC]*eG*e[5mC]*dG*dG*dA*dA*dG*dA*dA*dG*dG*dG*eA*e[5mC]*eG*eG*eA) [compound 422122]” was run?
Its value is 24%.

“422196 (antisense eT*eA*e[5mC]*dT*dG*dA*dG*d[5mC]*dG*d[5mC]*dG*dG*dA*dA*dG*dA*dA*eG*eG*eG) [compound 422196]” was tested. Which “% Inhibition” value did it give?
Its value is 2%.

With “422187 (antisense e[5mC]*eG*eG*dA*dA*dG*dA*dA*dG*dG*dG*dA*d[5mC]*dG*dG*dA*dA*eG*eG*eT) [compound 422187]” as the substance, how does the “% Inhibition” value read?
Its value is 28%.

With “422190 (antisense eG*e[5mC]*eG*d[5mC]*dG*dG*dA*dA*dG*dA*dA*dG*dG*dG*dA*d[5mC]*dG*eG*eA*eA) [compound 422190]” as the substance, how does the “% Inhibition” value read?
The value was 12%.

With “422265 (antisense eG*e[5mC]*dG*dG*dA*dA*dG*dA*dA*dG*dG*dG*dA*d[5mC]*dG*eG*eA*eA*eG*eG) [compound 422265]” as the substance, how does the “% Inhibition” value read?
The value was 34%.

Same assay, conditions: Table 13 (microwalk), 50 nM, lipofectin, approximately 24 hours

With “422227 (antisense eG*e[5mC]*dA*dT*dG*dG*dT*dG*dA*dT*dG*d[5mC]*dT*dT*d[5mC]*eT*eG*eA*eA*eT) [compound 422227]” as the substance, how does the “% Inhibition” value read?
The value was 67%.

Same assay, conditions: gapmers targeted to nucleobases 4868 to 4899 of SEQ ID NO: 1, Table 8

“422224 (antisense eG*eG*eA*dG*d[5mC]*d[5mC]*d[5mC]*dG*dA*dG*dT*dT*d[5mC]*dT*dG*d[5mC]*dA*eG*eG*eA) [compound 422224]” was tested. Which “% Inhibition of human Factor 7 mRNA levels” value did it give?
The value was 62%.

With “422299 (antisense eA*eG*d[5mC]*d[5mC]*d[5mC]*dG*dA*dG*dT*dT*d[5mC]*dT*dG*d[5mC]*dA*eG*eG*eA*eG*e[5mC]) [compound 422299]” as the substance, how does the “% Inhibition of human Factor 7 mRNA levels” value read?
Its value is 64%.

“422216 (antisense eA*eG*eT*dT*d[5mC]*dT*dG*d[5mC]*dA*dG*dG*dA*dG*d[5mC]*dG*dG*d[5mC]*e[5mC]*eT*eA) [compound 422216]” was tested. Which “% Inhibition of human Factor 7 mRNA levels” value did it give?
The value was 68%.

Same assay, conditions: lipofectin, 50 nM antisense oligonucleotide, approximately 24 hours, Factor 7 mRNA by real-time RT-PCR (RTS 2927), relative to untreated control

“416555 (antisense eA*eA*eA*eG*eA*dT*d[5mC]*dA*dG*dG*d[5mC]*dA*dA*dA*dG*eA*eT*e[5mC]*e[5mC]*e[5mC]) [compound 416555]” was tested. Which “% Inhibition” value did it give?
Its value is 6%.

With “416519 (antisense eA*eA*eA*eT*eA*dT*dG*dG*dG*dA*d[5mC]*d[5mC]*d[5mC]*dA*dA*eA*eG*eT*eG*eG) [compound 416519]” as the substance, how does the “% Inhibition” value read?
The value was 9%.

Which “% Inhibition” value does the source give for “416521 (antisense e[5mC]*eA*e[5mC]*e[5mC]*e[5mC]*d[5mC]*dA*d[5mC]*d[5mC]*dA*dG*dG*dT*dT*dG*eT*eG*e[5mC]*eA*e[5mC]) [compound 416521]” here?
Its value is 36%.

How did the “% Inhibition” value turn out when “416526 (antisense eT*eG*eT*e[5mC]*e[5mC]*dA*d[5mC]*dA*dT*dG*dA*d[5mC]*d[5mC]*d[5mC]*d[5mC]*eA*e[5mC]*eA*eG*eG) [compound 416526]” was run?
Its value is 19%.

“416496 (antisense e[5mC]*eA*eA*e[5mC]*eA*d[5mC]*dT*dT*d[5mC]*dA*dA*dA*dT*dA*d[5mC]*eG*eA*eT*e[5mC]*eT) [compound 416496]” was tested. Which “% Inhibition” value did it give?
The value was 0%.

With “416532 (antisense eG*eG*eA*e[5mC]*e[5mC]*d[5mC]*dA*dG*dA*dT*dG*dA*d[5mC]*d[5mC]*dA*eG*e[5mC]*eA*eG*eG) [compound 416532]” as the substance, how does the “% Inhibition” value read?
The value was 12%.

For “416515 (antisense eT*eA*eG*eG*e[5mC]*dA*dT*dG*dA*d[5mC]*d[5mC]*dA*dT*d[5mC]*d[5mC]*eT*e[5mC]*eA*eA*eT) [compound 416515]”, which “% Inhibition” value is on record?
The value was 39%.

How did the “% Inhibition” value turn out when “416558 (antisense eT*eG*eA*e[5mC]*eA*dG*d[5mC]*dA*d[5mC]*dG*dA*dA*dG*d[5mC]*d[5mC]*e[5mC]*eA*eG*eA*eG) [compound 416558]” was run?
The value was 19%.

With “416422 (antisense eA*eG*e[5mC]*eG*eA*d[5mC]*d[5mC]*d[5mC]*d[5mC]*dG*d[5mC]*d[5mC]*dT*dG*d[5mC]*eA*eG*e[5mC]*e[5mC]*eA) [compound 416422]” as the substance, how does the “% Inhibition” value read?
Its value is 8%.

“416434 (antisense e[5mC]*eT*eG*eT*eA*dA*dG*dA*dA*dA*dT*d[5mC]*d[5mC]*dA*dG*eA*eA*e[5mC]*eA*eG) [compound 416434]” was tested. Which “% Inhibition” value did it give?
Its value is 0%.

“416491 (antisense eG*eA*eG*eA*eA*dG*dG*dG*dT*dT*dG*d[5mC]*dA*dG*dG*e[5mC]*eA*eG*eG*eA) [compound 416491]” was tested. Which “% Inhibition” value did it give?
The value was 2%.

With “416473 (antisense e[5mC]*e[5mC]*e[5mC]*eT*eG*d[5mC]*d[5mC]*d[5mC]*d[5mC]*dT*d[5mC]*dT*dG*dT*d[5mC]*e[5mC]*eA*eG*e[5mC]*eG) [compound 416473]” as the substance, how does the “% Inhibition” value read?
Its value is 61%.

For “416430 (antisense eG*e[5mC]*eA*eG*e[5mC]*dT*d[5mC]*d[5mC]*dT*d[5mC]*d[5mC]*dA*dG*dG*dA*eA*e[5mC]*eG*e[5mC]*eG) [compound 416430]”, which “% Inhibition” value is on record?
Its value is 52%.

How did the “% Inhibition” value turn out when “416505 (antisense eG*e[5mC]*eA*eG*eA*dT*dT*dT*dG*d[5mC]*dA*dT*d[5mC]*dA*dG*eA*eA*eA*eA*eG) [compound 416505]” was run?
The value was 45%.

Same assay, conditions: oligonucleotides targeted to nucleobases 11830 to 11869 of SEQ ID NO: 1 (Table 9)

“422167 (antisense eG*eA*eG*dG*dA*dG*dA*d[5mC]*dA*dA*dT*dG*dG*dT*d[5mC]*dA*dG*eG*eG*e[5mC]) [compound 422167]” was tested. Which “% Inhibition (human Factor 7 mRNA levels)” value did it give?
Its value is 53%.

“422105 (antisense eT*eG*eG*e[5mC]*eT*dG*dA*dG*dG*dA*dG*dA*d[5mC]*dA*dA*eT*eG*eG*eT*e[5mC]) [compound 422105]” was tested. Which “% Inhibition (human Factor 7 mRNA levels)” value did it give?
The value was 60%.

With “422092 (antisense eA*eT*eG*eG*eT*d[5mC]*dA*dG*dG*dG*d[5mC]*dT*dG*dG*dT*eT*eT*eT*eG*eG) [compound 422092]” as the substance, how does the “% Inhibition (human Factor 7 mRNA levels)” value read?
Its value is 36%.

For “422166 (antisense eA*eG*eG*dA*dG*dA*d[5mC]*dA*dA*dT*dG*dG*dT*d[5mC]*dA*dG*dG*eG*e[5mC]*eT) [compound 422166]”, which “% Inhibition (human Factor 7 mRNA levels)” value is on record?
The value was 63%.

How did the “% Inhibition (human Factor 7 mRNA levels)” value turn out when “422249 (antisense eT*eG*dG*d[5mC]*dT*dG*dA*dG*dG*dA*dG*dA*d[5mC]*dA*dA*eT*eG*eG*eT*e[5mC]) [compound 422249]” was run?
The value was 52%.

“422095 (antisense eA*e[5mC]*eA*eA*eT*dG*dG*dT*d[5mC]*dA*dG*dG*dG*d[5mC]*dT*eG*eG*eT*eT*eT) [compound 422095]” was tested. Which “% Inhibition (human Factor 7 mRNA levels)” value did it give?
The value was 60%.

Which “% Inhibition (human Factor 7 mRNA levels)” value does the source give for “422244 (antisense eG*eA*dG*dG*dA*dG*dA*d[5mC]*dA*dA*dT*dG*dG*dT*d[5mC]*eA*eG*eG*eG*e[5mC]) [compound 422244]” here?
Its value is 55%.

For “422098 (antisense eG*eG*eA*eG*eA*d[5mC]*dA*dA*dT*dG*dG*dT*d[5mC]*dA*dG*eG*eG*e[5mC]*eT*eG) [compound 422098]”, which “% Inhibition (human Factor 7 mRNA levels)” value is on record?
Its value is 53%.

Same assay, conditions: oligonucleotides targeted to nucleobases 13760 to 13789 of SEQ ID NO: 1 (Table 10)

For “422260 (antisense eG*e[5mC]*dG*d[5mC]*d[5mC]*dA*d[5mC]*d[5mC]*d[5mC]*dG*d[5mC]*d[5mC]*dG*dG*d[5mC]*eT*e[5mC]*eT*eG*e[5mC]) [compound 422260]”, which “% Inhibition (human Factor 7 mRNA levels)” value is on record?
Its value is 56%.

Same assay, conditions: oligonucleotides targeted to nucleobases 14707 to 14732 of SEQ ID NO: 1 (Table 11)

Which “% Inhibition (human Factor 7 mRNA levels)” value does the source give for “422281 (antisense eG*e[5mC]*dA*dG*d[5mC]*d[5mC]*dT*dG*dA*dG*dG*d[5mC]*d[5mC]*dA*dG*e[5mC]*eA*eG*eA*eT) [compound 422281]” here?
Its value is 57%.

How did the “% Inhibition (human Factor 7 mRNA levels)” value turn out when “422279 (antisense eA*eG*d[5mC]*d[5mC]*dT*dG*dA*dG*dG*d[5mC]*d[5mC]*dA*dG*d[5mC]*dA*eG*eA*eT*e[5mC]*eA) [compound 422279]” was run?
The value was 56%.

Same assay, conditions: oligonucleotides targeted to nucleobases 15098 to 15122 of SEQ ID NO: 1 (Table 12)

How did the “% Inhibition (human Factor 7 mRNA levels)” value turn out when “422286 (antisense eA*eG*d[5mC]*dA*d[5mC]*dA*d[5mC]*dA*dT*dG*dG*dA*dG*dT*d[5mC]*eA*eG*e[5mC]*eA*eT) [compound 422286]” was run?
The value was 53%.

“422136 (antisense e[5mC]*eA*eG*e[5mC]*eA*d[5mC]*dA*d[5mC]*dA*dT*dG*dG*dA*dG*dT*e[5mC]*eA*eG*e[5mC]*eA) [compound 422136]” was tested. Which “% Inhibition (human Factor 7 mRNA levels)” value did it give?
Its value is 57%.
